Assay results from US20040219158A1, “Compositions and methods for diagnosis and therapy of medical conditions involving infection with pseudomonas bacteria” (priority 2003, published 2004).

Molecular target: PA-IIL lectin (Pseudomonas aeruginosa, UniProt Q9HYN5)
Assay: Inhibition of binding of HRP-labeled fucosylated polymer (Fuc-PAA-biotin) to immobilized PA-IIL lectin
Description: Biotinylated polymers of Fucose (Fuc-PAA-biotin, GlycoTech Corp.) are allowed to couple HRP-labeled streptavidin (KPL labs) overnight at 4° C. PA-IIL lectin is immobilized in plastic microtiter wells and allowed to react with the HRP-labeled fucosylated polymer. Binding is detected by TMB substrate followed by color development with 1 M H3PO4 (FIG. 20). Conditions chosen for the assay are coating with 3 μg/ml PA-IIL and incubation of inhibitor with 2 μg/ml of fucosylated polymer.

Sequence of PA-IIL lectin (Q9HYN5 entry or part of it): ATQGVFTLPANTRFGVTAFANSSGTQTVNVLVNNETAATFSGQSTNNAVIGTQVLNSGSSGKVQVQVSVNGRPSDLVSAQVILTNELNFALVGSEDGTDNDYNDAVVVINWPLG

Compound	inhibition of PA-IIL lectin (negative control saccharide, data not shown)	IC50 [µM]
O=C[C@H](O)[C@@H](O)[C@@H](O)[C@H](O)CO [Galactose]	no inhibition	–
O=C[C@@H](O)[C@@H](O)[C@H](O)[C@H](O)CO [Mannose]	–	95
